EPA's ToxValDB 9.5 (doi:10.2903/j.efsa.2014.3677)
≈ marks a conversion by molar mass, not a printed value. Where “and” joins values, the source holds several entries; their conditions need not be identical. Identical values can stand only once.

Tests used:
Apis mellifera = settings: acute, mortality
Bibionidae = settings: chronic/long-term; duration: 28 days
Canidae = settings: chronic; duration: 1 years; oral; Dog Other; clinical signs
Colinus virginianus = settings: acute; oral; diet
Folsomia candida = settings: chronic/long-term
Hyalella azteca = settings: acute; duration: 48 hours; mortality
Leuciscus idus = settings: acute; duration: 96 hours; mortality
Mus musculus = settings: acute; oral
Neomysis kadiakensis = settings: chronic/long-term; duration: 28 days
Pimephales promelas = settings: chronic/long-term; duration: 300 days
Plant = settings: not reported
Rattus norvegicus = settings: reproduction developmental; body weight
Aphidius rhopalosiphi = test: LR50; higher = less toxic; settings: not reported; mortality
Typhlodromus pyri = test: LR50; higher = less toxic; settings: not reported; mortality

## CC1(C)[C@H](/C=C(\Cl)C(F)(F)F)[C@@H]1C(=O)O[C@@H](C#N)c1cccc(Oc2ccccc2)c1 [lambda-Cyhalothrin]
Anas platyrhynchos; acute, oral, unspecified
  LD50: 3950 mg/kg-day
Anas platyrhynchos; reproductive
  NOEC: 3.3 mg/kg-day
Apis mellifera; dermal
  LD50: 0.038 µg/piece
Apis mellifera; oral, unspecified
  LD50: 0.91 µg/piece
Bibionidae
  NOEC: 0.13 µg/L
Canidae
  NOAEL: 0.5 mg/kg-day
Colinus virginianus
  LD50: > 530 mg/kg-day
Folsomia candida
  NOEC: 2.73 mg/kg
Hyalella azteca
  LC50: 0.0019 ng/mL (≈ 0.00422 nM)
Leuciscus idus
  LC50: 0.078 ng/mL (≈ 0.173 nM)
Mus musculus
  LD50: 20 mg/kg-day
Neomysis kadiakensis
  NOEC: 0.00022 µg/L
Pimephales promelas
  NOEC: 0.031 µg/L
Plant
  NOEC: 7.5 g/ha
Rattus norvegicus
  NOAEL: 0.5 mg/kg-day and 0.25 mg/kg-day
Tagia sp.; acute, mortality
  LC50: > 500 mg/kg
Tagia sp.; chronic/long-term
  NOEC: 3.12 mg/kg
Aphidius rhopalosiphi
  LR50: 1.06 g/ha
Typhlodromus pyri
  LR50: 0.0037 g/ha
